Experimental data taken from patent publication US20240383942A1, “WATER-SOLUBLE ALLOPR[…], AND PREPARATION METHOD THEREFOR AND USE THEREOF” (NANJING MINOVA PHARMACEUTICAL CO., LTD., priority 2021, published 2024).
Structures can show the parent of a compound that is named as a salt.

Key:
[1] = Saturation solubility by external standard HPLC method; assay type: physicochemical; conditions: thermodynamic from solid; purified water, 25° C., stirred 24 h
Method: Preparation of an external standard solution: 50 mg of a compound to be tested was precisely weighed out, added to a 10 mL volumetric flask, and dissolved in a proper amount of purified water by ultrasonication. The solution was diluted to volume and mixed well to give an external standard solution with a concentration of 5.0 mg/mL.
The solution was stirred for dissolution for 24 h at 25° C. and centrifuged. The supernatant was taken and filtered through a 0.45 μm filter membrane, and the filtrate was collected. 1 mL of the filtrate described above was precisely measured out and added to a 5 mL measuring flask. Purified water was added to dilute the filtrate to volume, and the solution was mixed well to give a solution to be tested.
2. Determination of Saturation Solubility by External Standard Method
Chromatographic Conditions
Chromatographic column: Waters XBridge C8 3.5 μm 4.6×100 mm NRT2019-21#, column temperature: 45° C., detection wavelength: 205 nm;
Mobile phase A: a 10 mM/L (NH4)2HPO4 solution, mobile phase B: acetonitrile, isocratic elution A:B=40:60, flow rate: 1.0 mL/min;
Injection volume: 10 μL, run time: 10 min.
Purified water was used as a blank control solution, and the peak areas of the external standard solution and the standard solution were measured using a high performance liquid chromatograph with a UV detector and denoted as Aexternal standard and Ato be tested, respectively.

[2] = In vitro metabolic study in human liver microsome incubation system; conditions: for Concentration of the compound to be tested (parent): human liver microsomes 0.5 mg protein/mL, NADPH, 37° C.
Method: Instruments, conditions and parameters: liquid chromatography-mass spectrometry system (LC/MS/MS, Shimadzu LC 30-AD, MS API 4000); the chromatographic column was ACQUITY UPLC BEH C18 column (1.7 μm 2.1×50 mm Column, Part No. 186002350); the mobile phase was acetonitrile-water-formic acid (50:50:0.1); the flow rate was 0.7 mL/min; the injection volume was 5μL; the column temperature was room temperature. An electrospray ionization (ESI) source was adopted with a spray voltage of 4.8 KV; the capillary temperature (TEM) was 300° C.; the sheath gas was N2, and the flow rate was 10 psi; the auxiliary gas was N2, and the flow rate was 1 psi; the collision-induced dissociation (CID) gas was Ar, and the pressure was 1.5 mTorr. The mass spectrometry scan mode was mass spectrometry multiple reaction monitoring (MRM), and the positive ion mode was used for detection.
About 10 mg of each of the samples to be tested was precisely weighed out and dissolved in 0.1 mL of DMSO, and the solution was stepwise diluted with purified water to prepare 10 μM and 1 μM standard stock solutions. In an ice bath, the detection incubation system was prepared according to Table 3. NADPH was added to the incubation system (see Table 4 for its composition) to start a reaction, and 50 μL of the resulting mixture was taken immediately and added to 150 μL of acetonitrile as a time-zero sample and a 1 μM standard curve sample. Another 1 μM standard stock solution was added to the incubation system, and 50 μL of the resulting mixture was taken immediately and added to 150 μL of acetonitrile as a 0.1 μM standard curve sample. […] Each sample was shaken and centrifuged at 18,000 g for 10 min, and a sample of the supernatant was taken and injected for LC/MS/MS analysis.

[3] = in the human body; cited from earlier work
hERG potassium channel = hERG potassium channel (Homo sapiens, UniProt Q12809); test: Manual patch clamp assay of hERG potassium channel current in CHO-hERG cells
Chain of hERG potassium channel (Q12809 whole entry): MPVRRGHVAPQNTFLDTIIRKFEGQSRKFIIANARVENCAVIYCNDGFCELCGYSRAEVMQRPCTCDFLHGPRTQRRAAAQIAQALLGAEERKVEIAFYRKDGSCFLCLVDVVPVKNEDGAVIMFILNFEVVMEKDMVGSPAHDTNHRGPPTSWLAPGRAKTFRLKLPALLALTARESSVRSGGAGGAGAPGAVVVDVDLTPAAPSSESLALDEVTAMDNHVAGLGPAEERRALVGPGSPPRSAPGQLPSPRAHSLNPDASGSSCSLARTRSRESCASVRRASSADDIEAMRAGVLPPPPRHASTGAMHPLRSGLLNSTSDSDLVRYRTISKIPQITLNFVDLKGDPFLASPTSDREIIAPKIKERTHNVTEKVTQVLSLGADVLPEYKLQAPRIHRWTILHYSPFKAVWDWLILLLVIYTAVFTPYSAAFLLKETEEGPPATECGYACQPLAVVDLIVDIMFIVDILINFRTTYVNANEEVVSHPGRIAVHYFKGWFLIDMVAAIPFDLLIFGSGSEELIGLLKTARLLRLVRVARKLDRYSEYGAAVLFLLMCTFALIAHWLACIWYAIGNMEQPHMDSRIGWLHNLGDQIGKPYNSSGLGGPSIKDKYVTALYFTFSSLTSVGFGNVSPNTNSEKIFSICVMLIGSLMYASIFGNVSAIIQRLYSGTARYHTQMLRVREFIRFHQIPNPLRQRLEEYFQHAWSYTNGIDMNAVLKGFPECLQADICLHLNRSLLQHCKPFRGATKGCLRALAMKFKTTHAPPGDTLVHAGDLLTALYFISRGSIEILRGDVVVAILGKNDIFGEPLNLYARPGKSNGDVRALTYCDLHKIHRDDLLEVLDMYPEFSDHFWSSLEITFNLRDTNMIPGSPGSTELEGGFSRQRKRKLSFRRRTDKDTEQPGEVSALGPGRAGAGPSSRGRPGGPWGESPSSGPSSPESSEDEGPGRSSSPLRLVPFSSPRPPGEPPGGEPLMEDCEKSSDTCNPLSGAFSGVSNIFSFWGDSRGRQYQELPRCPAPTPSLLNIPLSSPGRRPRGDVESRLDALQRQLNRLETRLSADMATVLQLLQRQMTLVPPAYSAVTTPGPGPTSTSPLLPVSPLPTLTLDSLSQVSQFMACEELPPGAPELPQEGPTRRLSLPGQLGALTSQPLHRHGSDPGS
Method: The manual patch clamp method was used to measure the effect of the compounds on hERG potassium channel current stably expressed in Chinese hamster ovary cells.
Manual patch clamp assay method:
CHO-hERG cells in the exponential growth phase were collected and resuspended in ECS (extracellular solution) for later use. The cells were seeded in a cell recording chamber, and the chamber was placed on the stage of an inverted microscope. One of the cells in the tank was randomly selected for testing. The perfusion system was fixed onto the stage of the inverted microscope, and the cell was perfused continuously with ECS. […]
The clamping voltage was −80 mV. […] The peak value of the tail current was measured and used for analysis. […] In the initial stage of recording the perfusion with the solvent control working solution, the peak value of the tail current was monitored until 3 or more scanning curves were stabilized, and then perfusion was performed with the test sample/positive control working solution to be tested until the inhibitory effect of the test sample/positive control working solution on the peak value of the hERG current reached a stable state.
The hERG current was recorded under the whole cell patch clamp technology at room temperature. […] Data were collected and recorded by Patchmaster Pro software and processed using Origin 8E software, and hERG IC50 values were calculated.

## CC(=O)[C@H]1CC[C@H]2[C@@H]3CC[C@H]4C[C@H](O)CC[C@]4(C)[C@H]3CC[C@]12C [Allopregnanolone, 3α-OH-5α-pregnan-20-one]
[1]
  solubility at 24 h: < 0.01 mg/mL
[2]; incubation time 0 min
  Concentration of the compound to be tested (parent): 1.000 µM
[2]; incubation time 5 min
  Concentration of the compound to be tested (parent): 0.626 µM
[2]; incubation time 15 min
  Concentration of the compound to be tested (parent): 0.414 µM
[2]; incubation time 30 min
  Concentration of the compound to be tested (parent): 0.259 µM
[2]; incubation time 45 min
  Concentration of the compound to be tested (parent): 0.150 µM
[2]; incubation time 60 min
  Concentration of the compound to be tested (parent): 0.119 µM
[3]
  plasma half-life: about 45 minutes

## CC(=O)[C@H]1CC[C@H]2[C@@H]3CC[C@H]4C[C@H](OC(=O)[C@@H](N)C(C)C)CC[C@]4(C)[C@H]3CC[C@]12C [Comparative compound 1 hydrochloride]
[1]
  solubility at 24 h: 29.9 mg/mL

## CC(=O)[C@H]1CC[C@H]2[C@@H]3CC[C@H]4C[C@H](OC(=O)[C@@H](N)C(C)C)CC[C@]4(C)[C@H]3CC[C@]12C [Comparative compound 1]
[2]; incubation time 0 min
  Concentration of the compound to be tested (parent): 1.000 µM
[2]; incubation time 5 min
  Concentration of the compound to be tested (parent): 0.801 µM
[2]; incubation time 15 min
  Concentration of the compound to be tested (parent): 0.6800 µM
[2]; incubation time 30 min
  Concentration of the compound to be tested (parent): 0.484 µM
[2]; incubation time 45 min
  Concentration of the compound to be tested (parent): 0.306 µM
[2]; incubation time 60 min
  Concentration of the compound to be tested (parent): 0.256 µM
[2]; liver microsome system
  concentration of allopregnanolone resulting from metabolism reaching a stable level (in words): unable to achieve a stable level
hERG potassium channel
  IC50: 0.77 µM

## [2H]C(C)(C)[C@H](N)C(=O)O[C@@H]1CC[C@@]2(C)[C@@H](CC[C@@H]3[C@@H]2CC[C@]2(C)[C@@H](C(C)=O)CC[C@@H]32)C1 [Compound 1 hydrochloride]
[1]
  solubility at 24 h: 31.2 mg/mL

## [2H]C(C)(C)[C@H](N)C(=O)O[C@@H]1CC[C@@]2(C)[C@@H](CC[C@@H]3[C@@H]2CC[C@]2(C)[C@@H](C(C)=O)CC[C@@H]32)C1 [Compound 1]
[2]; incubation time 0 min
  Concentration of the compound to be tested (parent): 1.000 µM
[2]; incubation time 5 min
  Concentration of the compound to be tested (parent): 0.956 µM
[2]; incubation time 15 min
  Concentration of the compound to be tested (parent): 0.874 µM
[2]; incubation time 30 min
  Concentration of the compound to be tested (parent): 0.575 µM
[2]; incubation time 45 min
  Concentration of the compound to be tested (parent): 0.423 µM
[2]; incubation time 60 min
  Concentration of the compound to be tested (parent): 0.352 µM
hERG potassium channel
  IC50: 1.93 µM

## [2H]C([2H])([2H])C([C@H](N)C(=O)O[C@@H]1CC[C@@]2(C)[C@@H](CC[C@@H]3[C@@H]2CC[C@]2(C)[C@@H](C(C)=O)CC[C@@H]32)C1)C([2H])([2H])[2H] [Compound 2 hydrochloride]
[1]
  solubility at 24 h: 36.1 mg/mL

## [2H]C(N)(C(=O)O[C@@H]1CC[C@@]2(C)[C@@H](CC[C@@H]3[C@@H]2CC[C@]2(C)[C@@H](C(C)=O)CC[C@@H]32)C1)C(C)C (stereo partly drawn) [Compound 3 hydrochloride]
[1]
  solubility at 24 h: 19 mg/mL

## O=C(O)Cc1ccccc1Nc1c(Cl)cccc1Cl [Diclofenac, diclofenac]
[2]; incubation time 0 min
  Concentration of the compound to be tested (parent): 1.000 µM
[2]; incubation time 5 min
  Concentration of the compound to be tested (parent): 0.374 µM
[2]; incubation time 15 min
  Concentration of the compound to be tested (parent): 0.077 µM
[2]; incubation time 30 min
  Concentration of the compound to be tested (parent): 0.008 µM
[2]; incubation time 45 min
  Concentration of the compound to be tested (parent): 0.001 µM
[2]; incubation time 60 min
  Concentration of the compound to be tested (parent): 0.001 µM

## C[C@]12CC[C@H]3[C@@H](CCC4=CC(=O)CC[C@@]43C)[C@@H]1CC[C@@H]2O [Testosterone, testosterone]
[2]; incubation time 0 min
  Concentration of the compound to be tested (parent): 1.000 µM
[2]; incubation time 5 min
  Concentration of the compound to be tested (parent): 0.677 µM
[2]; incubation time 15 min
  Concentration of the compound to be tested (parent): 0.379 µM
[2]; incubation time 30 min
  Concentration of the compound to be tested (parent): 0.155 µM
[2]; incubation time 45 min
  Concentration of the compound to be tested (parent): 0.063 µM
[2]; incubation time 60 min
  Concentration of the compound to be tested (parent): 0.044 µM
